Values quoted from earlier work in patent publication US20040101478A1, “In vivo methods of determining activity of receptor-type kinase inhibitors” (priority 2003, published 2004).

Molecular target: KDR kinase (Homo sapiens, UniProt P35968)
Settings: Kasahara et al., 2000, J. Clin. Invest. 106: 1311-1319; cited from earlier work

Chain of KDR kinase (P35968 20-1356): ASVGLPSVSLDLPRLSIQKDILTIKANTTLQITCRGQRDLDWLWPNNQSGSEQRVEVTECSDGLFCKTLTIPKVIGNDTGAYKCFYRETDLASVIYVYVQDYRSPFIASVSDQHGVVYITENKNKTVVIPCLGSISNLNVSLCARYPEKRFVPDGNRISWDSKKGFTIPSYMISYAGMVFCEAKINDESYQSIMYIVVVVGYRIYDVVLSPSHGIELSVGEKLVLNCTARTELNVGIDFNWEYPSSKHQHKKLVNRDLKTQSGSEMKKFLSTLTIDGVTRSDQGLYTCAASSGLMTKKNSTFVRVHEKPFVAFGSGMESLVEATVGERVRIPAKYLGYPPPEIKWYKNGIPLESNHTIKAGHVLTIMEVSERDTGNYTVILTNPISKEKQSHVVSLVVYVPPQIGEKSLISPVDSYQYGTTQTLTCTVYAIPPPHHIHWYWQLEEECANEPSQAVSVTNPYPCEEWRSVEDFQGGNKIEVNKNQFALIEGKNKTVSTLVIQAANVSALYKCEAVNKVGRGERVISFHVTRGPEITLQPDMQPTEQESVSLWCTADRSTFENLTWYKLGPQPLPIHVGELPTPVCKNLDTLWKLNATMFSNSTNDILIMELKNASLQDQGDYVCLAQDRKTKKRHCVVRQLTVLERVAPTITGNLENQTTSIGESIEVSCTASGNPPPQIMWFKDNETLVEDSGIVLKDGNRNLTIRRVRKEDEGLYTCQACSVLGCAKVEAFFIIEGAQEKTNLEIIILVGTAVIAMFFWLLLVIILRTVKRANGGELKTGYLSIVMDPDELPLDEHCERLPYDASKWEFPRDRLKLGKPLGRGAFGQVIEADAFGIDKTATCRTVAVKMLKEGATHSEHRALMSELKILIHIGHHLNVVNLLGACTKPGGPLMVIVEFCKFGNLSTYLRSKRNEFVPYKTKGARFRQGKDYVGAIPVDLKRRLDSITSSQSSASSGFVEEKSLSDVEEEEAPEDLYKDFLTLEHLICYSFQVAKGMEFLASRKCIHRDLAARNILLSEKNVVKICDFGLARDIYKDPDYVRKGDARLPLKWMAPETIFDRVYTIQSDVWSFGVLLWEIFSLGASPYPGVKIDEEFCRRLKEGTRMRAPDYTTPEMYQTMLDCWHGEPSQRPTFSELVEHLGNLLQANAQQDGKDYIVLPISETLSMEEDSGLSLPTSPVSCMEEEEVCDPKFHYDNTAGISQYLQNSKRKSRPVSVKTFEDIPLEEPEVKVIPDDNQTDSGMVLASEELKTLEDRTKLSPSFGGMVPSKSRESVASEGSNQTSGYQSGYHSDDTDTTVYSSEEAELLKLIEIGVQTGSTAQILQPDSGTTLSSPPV

## Cc1cc(C)c(/C=C2\C(=O)Nc3ccccc32)[nH]1 [SU5416]
  inhibition of VEGF-induced phosphorylation: inhibition of VEGF-induced phosphorylation
